10 compounds from paper PMC7922108, “Three Novel Biphenanthrene Derivatives and a New Phenylpropanoid Ester from Aerides multiflora and Their α-Glucosidase Inhibitory Activity” (Plants, 2021) can be followed below.

For assay [1], the target named is Yeast α-glucosidase enzyme. Put plainly: α-Glucosidase inhibition assay (PNPG substrate). Type of assay: biochemical. The conditions noted are these: for IC50 / IC50 (μg/mL), α-glucosidase inhibitory activity: NA = no inhibitory activity, acarbose positive control. How it is done: Yeast α-glucosidase enzyme was used in this study. In general, α-glucosidase enzymes can be obtained from several sources, for example, Saccharomyces cerevisiae, Rattus norvegicus, and GANC-human.
The assays were performed following previous protocols. […] Each sample was initially dissolved in 50% DMSO. Then, 0.1 U/mL of α-glucosidase (40 μL) in phosphate buffer (pH 6.8) was added to each well of a 96-well plate which contained the sample solution (10 μL). The plate was pre-incubated at 37 °C for 10 min. Then, 2 mM p-nitrophenol-α-D-glucopyranoside (50 μL) was added, and the mixture was incubated again at 37 °C for 20 min. Finally, 1 M Na2CO3 solution (100 μL) was added to terminate the reaction. The absorbance of the mixture was measured at 405 nm using a microplate reader. Two-fold serial dilution was performed for IC50 determination. The drug acarbose was used as the positive control.

The test system of assay [2] is Yeast α-glucosidase enzyme. Put plainly: Enzyme kinetics study, Lineweaver–Burk plot and secondary plot. The assay is classed as biochemical. The settings on record: for Mode of enzyme inhibition: from Lineweaver–Burk plot; for Km / Vmax: PNPG 0.25–2.0 mM. As for the experimental part: A kinetics study was then performed on compound 3 to analyze the mode of enzyme inhibition using various substrate concentrations (0.25–2.0 mM).
The mode of enzyme inhibition of the test compound was determined using the double reciprocal Lineweaver–Burk plot (1/V vs. 1/[S]). The experiment was performed by varying the PNPG concentrations (0.25, 0.5, 1.0, and 2.0 mM) in the absence or presence of compound 3 (4 μM and 8 μM) or acarbose (930 μM and 465 μM). The secondary plot was constructed by replotting the slopes of the lines against inhibitor concentrations, and the Ki was calculated from the line equation of the plot.

Converted amounts (≈) assume the structure as drawn. “Also recorded” adds a separate entry of the source.

As for `COc1cc(O)cc(CCc2ccc(O)c(OC)c2)c1` [Gigantol (6), gigantol], in assay [1], the IC50 is 191 ± 6.8 µM and the “IC50 (μg/mL), α-glucosidase inhibitory activity” value worked out at 52.5 ± 1.9 µg/mL (≈ 191 µM).

For the compound `COc1cc(O)c(-c2c(O)cc(OC)c3c2ccc2cc(O)c(O)cc23)c2ccc3cc(O)c(O)cc3c12` [Aerimultin C (3), aerimultin C], the “Mode of enzyme inhibition” value in assay [2] is listed as “non-competitive inhibition; also recorded: potent non-competitive inhibitor”. In addition, in assay [2] (listed as aerimultin (3)), the “Mode of enzyme inhibition” value is “non-competitive type of inhibition”. In addition, in assay [2] (from secondary plot (slopes vs inhibitor concentrations)), the Ki was 4.18 µM. Moreover, in assay [2] (inhibitor dose 4 μM), the Km was found to be 1220 µM and the Vmax is recorded as 0.055 ∆OD/min. In assay [2] (inhibitor dose 8 μM), the Km was 1200 µM and the Vmax is reported as 0.035 ∆OD/min. Also, in assay [1], the “α-Glucosidase inhibitory activity (in words)” value is given as “most potent activity”; the IC50 is 5.2 ± 0.7 µM; the “IC50 (μg/mL), α-glucosidase inhibitory activity” value stood at 2.7 ± 0.4 µg/mL (≈ 5.29 µM).

With `COc1cc2c(ccc3c(-c4c(O)cc5c6c4ccc4cc(O)c(OC)c(c46)CO5)c(O)cc(OC)c32)cc1O` [Aerimultin B (2), aerimultin B], in assay [1], the half-maximal inhibitory concentration (IC50) stood at 77 ± 2.5 µM and the “IC50 (μg/mL), α-glucosidase inhibitory activity” value was found to be 41.8 ± 1.3 µg/mL (≈ 77.9 µM).

With `COc1cc2c(cc1O)CCc1cc(O)cc(OC)c1-2` [6-Methoxy coelonin (5), 6-methoxycoelonin], in assay [1], inhibition was half-maximal at 225 ± 7.8 µM (IC50) and the “IC50 (μg/mL), α-glucosidase inhibitory activity” value was 61.2 ± 2.2 µg/mL (≈ 225 µM).

For the compound `COc1cc(CCCOC(=O)CCc2ccc(O)cc2)ccc1O` [Dihydroconiferyl dihydro-p-coumarate (9), dihydroconiferyl dihydro-p-coumarate], in assay [1], the IC50 turned out to be 267 ± 8.6 µM and the “IC50 (μg/mL), α-glucosidase inhibitory activity” value worked out at 88.1 ± 2.9 µg/mL (≈ 267 µM).

In the case of `COc1c(O)cc2c3c1COc1cc(O)cc(c1-3)CC2` [Imbricatin (7), imbricatin], in assay [1], the IC50 was 166 ± 7.7 µM and the “IC50 (μg/mL), α-glucosidase inhibitory activity” value worked out at 44.9 ± 2.1 µg/mL (≈ 166 µM).

Turning to `COc1cc(CCC(=O)OCCCc2cc(OC)c(O)c(OC)c2)ccc1O` [Dihydrosinapyl dihydroferulate (4), dihydrosinapyl dihydroferulate], the “α-Glucosidase inhibitory activity (in words)” value in assay [1] is listed as “total loss of activity”.

As for `COc1cc2c(ccc3c(-c4c(O)cc(OC)c5c4ccc4cc(O)c(OC)cc45)c(O)cc(OC)c32)cc1O` [Agrostonin (8), agrostonin], in assay [1], half-maximal inhibition (IC50) was put at 37.2 ± 4.5 µM and the “IC50 (μg/mL), α-glucosidase inhibitory activity” value is 20.1 ± 2.5 µg/mL (≈ 37.3 µM).

Turning to `COc1cc2c(cc1O)CCc1c(Oc3cc4c(cc3OC)-c3c(cc(O)cc3OC)CC4)c(O)cc(OC)c1-2` [Aerimultin A (1), aerimultin A], in assay [1], 30.9 ± 1.9 µM corresponded to half-maximal inhibition (IC50) and the “IC50 (μg/mL), α-glucosidase inhibitory activity” value came out at 16.8 ± 1.0 µg/mL (≈ 31 µM).

For `COc1cc(O)cc2c1-c1cc(O)c(O)cc1CC2` [5-methoxy-9,10-dihydrophenanthrene-2,3,7-triol], in assay [1], the IC50 worked out at 115 ± 9.1 µM and the “IC50 (μg/mL), α-glucosidase inhibitory activity” value amounted to 29.7 ± 2.3 µg/mL (≈ 115 µM).
